{"source": "patent US9693560B2", "about": "“Microbicide substances” (LANXESS Deutschland GmbH, priority 2013, dated 2017)", "assay_type_in_all_cases": "cell-based", "key": {"[1]": {"tested_on": "Candida albicans", "assay": "MIC growth test (malt extract Bouillon)", "method": "(§1) The growth of bacteria and fungi upon the addition of different biocidal mixtures was tested. The concentration above which growth is no longer detected is given as the minimum inhibitory concentration (MIC). The precultivation of the bacteria which were used in the test was performed on tryptone soya agar. The precultivation of the fungi which were used in the test was performed on malt extract agar. The growth in the MIC tests was checked in tryptone soya broth (bacteria) or malt extract Bouillon (fungi). The organisms were incubated at 26° C. and a relative […] humidity of 70 to 80%. The bacteria were evaluated after 4 days, and the fungi were evaluated […] after 7 days.\n(§2) The synergistic index (SI) was determined in accordance with the method described by Kull et al. (F. C. Kull et al., Applied Microbiology 9 (1961), 538-541).\n(§3) The following equation applies here: SI=QA/Qa+QB/Qb"}, "[2]": {"tested_on": "Pseudomonas aeruginosa", "assay": "MIC growth test (tryptone soya broth)", "method": "as §1, §2, §3"}, "[3]": {"tested_on": "Staphylococcus aureus", "assay": "MIC growth test (tryptone soya broth)", "method": "as §1, §2, §3"}, "[4]": {"tested_on": "Enterobacter aerogenes", "assay": "MIC growth test (tryptone soya broth)", "method": "as §1, §2, §3"}, "[5]": {"tested_on": "Corynebacterium ammoniagenes", "assay": "MIC growth test (tryptone soya broth)", "method": "as §1, §2, §3"}, "[6]": {"tested_on": "Alcaligenes faecalis", "assay": "MIC growth test (tryptone soya broth)", "method": "as §1, §2, §3"}, "[7]": {"tested_on": "Proteus hauseri", "assay": "MIC growth test (tryptone soya broth)", "method": "as §1, §2, §3"}, "[8]": {"tested_on": "Pseudomonas stutzeri", "assay": "MIC growth test (tryptone soya broth)", "method": "as §1, §2, §3"}, "[9]": {"tested_on": "Bacillus subtilis", "assay": "MIC growth test (tryptone soya broth)", "method": "as §1, §2, §3"}, "[10]": {"tested_on": "Citrobacter freundii", "assay": "MIC growth test (tryptone soya broth)", "method": "as §1, §2, §3"}, "[11]": {"tested_on": "Enterococcus hirae", "assay": "MIC growth test (tryptone soya broth)", "method": "as §1, §2, §3"}, "[12]": {"tested_on": "Stachybotrys chartarum", "assay": "MIC growth test (malt extract Bouillon)", "method": "as §1, §2, §3"}, "[13]": {"tested_on": "Alternaria alternata", "assay": "MIC growth test (malt extract Bouillon)", "method": "as §1, §2, §3"}, "[14]": {"tested_on": "Escherichia coli", "assay": "MIC growth test (tryptone soya broth)", "method": "as §1, §2, §3"}, "[15]": {"tested_on": "Paecilomyces formosus", "assay": "MIC growth test (malt extract Bouillon)", "method": "as §1, §2, §3"}, "[16]": {"tested_on": "Penicillium pinophilum", "assay": "MIC growth test (malt extract Bouillon)", "conditions": "Talaromyces pinophilus", "method": "as §1, §2, §3"}, "[17]": {"tested_on": "Geotrichum candidum", "assay": "MIC growth test (malt extract Bouillon)", "method": "as §1, §2, §3"}, "[18]": {"tested_on": "Salmonella enterica", "assay": "MIC growth test (tryptone soya broth)", "conditions": "Example 3, Table 11", "method": "as §1, §2, §3"}}, "note": "Counter-ions that a name gives are not always drawn. Like-named read-outs stand apart in the source and are kept apart here."}
{"smiles": "O=c1[nH]sc2ccccc12", "note": "[BIT, 1,2-benzisothiazolin-3-one]", "values": [{"measurement": "MIC", "setting": "[1]; Example 3, Table 17", "result": 25, "unit": "ppm"}, {"measurement": "MIC", "setting": "[2]; Example 3, Table 11", "result": 50, "unit": "ppm"}, {"measurement": "MIC", "setting": "[3]; Example 3, Table 14", "result": 5, "unit": "ppm"}, {"measurement": "MIC", "setting": "[4]; Enterobacter aerogenes, Example 3, Table 11", "result": 25, "unit": "ppm"}, {"measurement": "MIC", "setting": "[5]; Example 3, Table 11", "result": 37.5, "unit": "ppm"}, {"measurement": "MIC", "setting": "[6]; Example 3, Table 11", "result": 2.5, "unit": "ppm"}, {"measurement": "MIC", "setting": "[7]; Example 3, Table 11", "result": 7.5, "unit": "ppm"}, {"measurement": "MIC", "setting": "[8]; Pseudomonas stutzeri, Example 3, Table 11", "result": 10, "unit": "ppm"}, {"measurement": "MIC", "setting": "[9]; Example 3, Table 11", "result": 5, "unit": "ppm"}, {"measurement": "MIC", "setting": "[10]; Example 3, Table 11", "result": 10, "unit": "ppm"}, {"measurement": "MIC", "setting": "[11]; Example 3, Table 11", "result": 10, "unit": "ppm"}]}
{"smiles": "Cn1sccc1=O", "note": "[MIT, 2-methyl-4-isothiazolin-3-one]", "values": [{"measurement": "MIC", "setting": "[12]; Example 4, Table 23", "result": 250, "unit": "mg/L"}, {"measurement": "MIC", "setting": "[13]", "result": 100, "unit": "mg/L"}, {"measurement": "MIC", "setting": "[14]", "result": 25, "unit": "mg/L"}]}
{"smiles": "CCCCCCCCCCCCNC(=N)N", "note": "[DGH, dodecylguanidine hydrochloride]", "values": [{"measurement": "MIC", "setting": "[12]; Example 2, Table 10", "result": 7.5, "unit": "mg/L"}, {"measurement": "MIC", "setting": "[12]; Example 4, Table 23", "result": 10, "unit": "mg/L"}, {"measurement": "MIC", "setting": "[15]", "result": 5, "unit": "mg/L"}, {"measurement": "MIC", "setting": "[16]", "result": 7.5, "unit": "mg/L"}, {"measurement": "MIC", "setting": "[17]", "result": 10, "unit": "mg/L"}, {"measurement": "MIC", "setting": "[13]", "result": 10, "unit": "mg/L"}, {"measurement": "MIC", "setting": "[1]", "result": 25, "unit": "mg/L"}, {"measurement": "MIC", "setting": "[2]", "result": 25, "unit": "mg/L"}, {"measurement": "MIC", "setting": "[3]", "result": 1, "unit": "mg/L"}, {"measurement": "MIC", "setting": "[3]; Example 3, Table 14", "result": 1, "unit": "ppm"}, {"measurement": "MIC", "setting": "[14]", "result": 5, "unit": "mg/L"}, {"measurement": "MIC", "setting": "[4]; Klebsiella aerogenes", "result": 10, "unit": "mg/L"}, {"measurement": "MIC", "setting": "[5]", "result": 2.5, "unit": "mg/L"}, {"measurement": "MIC", "setting": "[6]", "result": 10, "unit": "mg/L"}, {"measurement": "MIC", "setting": "[6]; Example 3, Table 11", "result": 10, "unit": "ppm"}, {"measurement": "MIC", "setting": "[7]", "result": 10, "unit": "mg/L"}, {"measurement": "MIC", "setting": "[8]; Stutzerimonas stutzeri", "result": 5, "unit": "mg/L"}, {"measurement": "MIC", "setting": "[9]; Example 2, Table 7", "result": 2.5, "unit": "mg/L"}, {"measurement": "MIC", "setting": "[9]; Example 3, Table 11", "result": 3.75, "unit": "mg/L"}, {"measurement": "MIC", "setting": "[10]", "result": 5, "unit": "mg/L"}, {"measurement": "MIC", "setting": "[10]; Example 3, Table 11", "result": 5, "unit": "ppm"}, {"measurement": "MIC", "setting": "[11]", "result": 2.5, "unit": "mg/L"}, {"measurement": "MIC", "setting": "[18]", "result": 10, "unit": "mg/L"}]}
